The values that follow come from US20110130380A1, “Heteroaryl Kinase Inhibitors” (priority 2009, published 2011).

Usually IC50 stands for the point on the concentration scale where inhibition reaches its midpoint. A higher IC50 goes with a need for much substance.

The target of this test is Cdk9/cyclinT1 (Homo sapiens, UniProt P50750). The experiment in a line: Cdk9/cyclinT1 IMAP Protocol (fluorescence polarization kinase assay). The following applies: Cdk9_cyclinT1_IC50, Table V; generated using one of the two Cdk9/cyclinT1 assays (IMAP or Alpha Screen), not stated which; ATP 6 uM. For orientation: Polarisation of emitted light reports the rotation of a fluorescent probe.
Sequence of Cdk9/cyclinT1 (P50750 whole entry): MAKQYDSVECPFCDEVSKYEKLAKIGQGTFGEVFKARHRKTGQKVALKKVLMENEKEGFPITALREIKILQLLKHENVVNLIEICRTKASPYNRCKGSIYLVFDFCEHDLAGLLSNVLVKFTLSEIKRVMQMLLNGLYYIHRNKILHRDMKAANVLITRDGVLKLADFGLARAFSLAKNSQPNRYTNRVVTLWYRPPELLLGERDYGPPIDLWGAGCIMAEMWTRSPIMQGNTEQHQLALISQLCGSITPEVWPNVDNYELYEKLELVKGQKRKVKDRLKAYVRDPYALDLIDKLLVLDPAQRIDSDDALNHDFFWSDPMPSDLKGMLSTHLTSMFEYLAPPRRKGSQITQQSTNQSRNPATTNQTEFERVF
Sequence of Cdk9/cyclinT1 (O60563 whole entry partner): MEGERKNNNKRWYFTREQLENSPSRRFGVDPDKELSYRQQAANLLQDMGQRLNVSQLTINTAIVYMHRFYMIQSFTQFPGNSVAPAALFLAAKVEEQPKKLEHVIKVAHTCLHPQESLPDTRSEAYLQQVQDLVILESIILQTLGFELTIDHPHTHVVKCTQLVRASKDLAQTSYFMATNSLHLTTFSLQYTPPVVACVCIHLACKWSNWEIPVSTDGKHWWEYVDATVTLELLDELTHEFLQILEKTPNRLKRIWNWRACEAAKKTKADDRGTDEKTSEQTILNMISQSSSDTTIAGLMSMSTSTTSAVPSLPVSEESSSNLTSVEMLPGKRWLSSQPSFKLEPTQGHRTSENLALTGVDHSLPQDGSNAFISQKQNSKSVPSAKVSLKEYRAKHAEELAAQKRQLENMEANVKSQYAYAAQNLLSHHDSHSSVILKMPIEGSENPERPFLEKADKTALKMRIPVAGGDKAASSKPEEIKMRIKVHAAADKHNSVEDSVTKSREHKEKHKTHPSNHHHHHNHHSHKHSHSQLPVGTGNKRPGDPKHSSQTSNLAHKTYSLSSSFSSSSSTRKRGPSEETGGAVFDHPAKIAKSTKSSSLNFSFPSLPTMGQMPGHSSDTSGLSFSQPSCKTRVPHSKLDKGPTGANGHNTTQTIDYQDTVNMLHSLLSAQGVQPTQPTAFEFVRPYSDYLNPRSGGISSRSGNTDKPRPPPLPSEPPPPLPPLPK

In the case of `O=C(Nc1cc(-c2cccc(NCC3CCOCC3)n2)c(Cl)cn1)[C@H]1CNC[C@H]1O` [Example 121, (3S,4S)-4-hydroxy-pyrrolidine-3-carboxylic acid {5′-chloro-6-[(tetrahydro-pyran-4-ylmethyl)-amino]-[2,4′]bipyridinyl-2′-yl}-amide], the IC50 was 134 nM. With `O=C(Nc1cc(-c2cccc(NCC3CCOCC3)n2)c(Cl)cn1)[C@H]1CNC[C@@H]1O` [Example 122, (3S,4R)-4-Hydroxy-pyrrolidine-3-carboxylic acid {5′-chloro-6-[(tetrahydro-pyran-4-ylmethyl)-amino]-[2,4′]bipyridinyl-2′-yl}-amide] the figure was 15 nM. With `O=C(Nc1cc(-c2nc(NCC3CCOCC3)ccc2Cl)c(F)cn1)[C@@H]1CCCNC1` [Example 123, (R)-Piperidine-3-carboxylic acid {3-chloro-5′-fluoro-6-[(tetrahydro-pyran-4-ylmethyl)-amino]-[2,4′]bipyridinyl-2′-yl}-amide] the figure was less than 8 nM; with `O=C(Nc1cc(-c2nc(NCC3CCOCC3)ccc2Cl)c(F)cn1)[C@H]1CNCCO1` [Example 124, (R)-Morpholine-2-carboxylic acid {3-chloro-5′-fluoro-6-[(tetrahydro-pyran-4-ylmethyl)-amino]-[2,4′]bipyridinyl-2′-yl}-amide], 30 nM. With `CC1(C)CC(CNc2ccc(Cl)c(-c3cc(NC(=O)[C@@H]4CCCNC4)ncc3Cl)n2)CCO1` (stereo partly drawn) [Example 132, (R)-Piperidine-3-carboxylic acid {3,5′-dichloro-6-[(2,2-dimethyl-tetrahydro-pyran-4-ylmethyl)-amino]-[2,4′]bipyridinyl-2′-yl}-amide] the figure was less than 8 nM; with `CC1(C)CC(CNc2ccc(Cl)c(-c3cc(NC(=O)[C@H]4CNCCO4)ncc3Cl)n2)CCO1` (stereo partly drawn) [Example 133, (R)-Morpholine-2-carboxylic acid {3,5′-dichloro-6-[(2,2-dimethyl-tetrahydro-pyran-4-ylmethyl)-amino]-[2,4′]bipyridinyl-2′-yl}-amide], less than 8 nM. Take `O=C(Nc1cc(-c2nc(NCC3CCOCC3)c(Cl)cc2Cl)c(Cl)cn1)[C@@H]1CCCNC1` [Example 134, (R)-Piperidine-3-carboxylic acid {3,5,5′-trichloro-6-[(tetrahydro-pyran-4-ylmethyl)-amino]-[2,4′]bipyridinyl-2′-yl}-amide]: the IC50 was less than 8 nM. Consider `O=C(Nc1cc(-c2ccc(F)c(NCC3CCOCC3)n2)c(Cl)cn1)[C@@H]1CCCNC1` [Example 135, (R)-Piperidine-3-carboxylic acid {5′-chloro-5-fluoro-6-[(tetrahydro-pyran-4-ylmethyl)-amino]-[2,4′]bipyridinyl-2′-yl}-amide], for which the IC50 is 1 nM. Compound `C[C@H](Nc1cccc(-c2cc(NC(=O)[C@@H]3CCCNC3)ncc2Cl)n1)C1CCOCC1` [Example 136, (R)-Piperidine-3-carboxylic acid {5′-chloro-6-[(S)-1-(tetrahydro-pyran-4-yl)-ethylamino]-[2,4′]bipyridinyl-2′-yl}-amide] displayed an IC50 of 13 nM. With `C[C@@H](Nc1cccc(-c2cc(NC(=O)[C@@H]3CCCNC3)ncc2Cl)n1)C1CCOCC1` [Example 137, (R)-Piperidine-3-carboxylic acid {5′-chloro-6-[(R)-1-(tetrahydro-pyran-4-yl)-ethylamino]-[2,4′]bipyridinyl-2′-yl}-amide] the figure was 11 nM. With `CO[C@H]1CNC[C@@H]1C(=O)Nc1cc(-c2cccc(NCC3CCOCC3)n2)c(Cl)cn1` [Example 138, (3S,4R)-4-Methoxy-pyrrolidine-3-carboxylic acid {5′-chloro-6-[(tetrahydro-pyran-4-ylmethyl)-amino]-[2,4′]bipyridinyl-2′-yl}-amide] the figure was less than 8 nM; with `CC(C)S(=O)(=O)N1CCC[C@H](C(=O)Nc2cc(-c3nc(NCC4CCOC(C)(C)C4)ccc3Cl)c(Cl)cn2)C1` (stereo partly drawn) [Example 139, (S)-1-(Propane-2-sulfonyl)-piperidine-3-carboxylic acid {3,5′-dichloro-6-[(2,2-dimethyl-tetrahydro-pyran-4-ylmethyl)-amino]-[2,4′]bipyridinyl-2′-yl}-amide], less than 8 nM.

Consider `COC(=O)N1CCC[C@H](C(=O)Nc2cc(-c3nc(NCC4CCOC(C)(C)C4)ccc3Cl)c(Cl)cn2)C1` (stereo partly drawn) [Example 140, (S)-3-{3,5′-Dichloro-6-[(2,2-dimethyl-tetrahydro-pyran-4-ylmethyl)-amino]-[2,4′]bipyridinyl-2′-ylcarbamoyl}-piperidine-1-carboxylic acid methyl ester], for which the IC50 was less than 8 nM. Take `O=C(Nc1cc(-c2ccc(F)c(NCC3CCOCC3)n2)c(Cl)cn1)[C@@H]1CCNC1` [Example 143, (R)-Pyrrolidine-3-carboxylic acid {5′-chloro-5-fluoro-6-[(tetrahydro-pyran-4-ylmethyl)-amino]-[2,4′]bipyridinyl-2′-yl}-amide]: the IC50 was determined as 1 nM.

On to `CO[C@H]1CNC[C@@H]1C(=O)Nc1cc(-c2ccc(F)c(NCC3CCOCC3)n2)c(Cl)cn1` [Example 144, (3S,4R)-4-Methoxy-pyrrolidine-3-carboxylic acid {5′-chloro-5-fluoro-6-[(tetrahydro-pyran-4-ylmethyl)-amino]-[2,4′]bipyridinyl-2′-yl}-amide], for which the IC50 worked out at 1 nM. On to `CC1(C(=O)Nc2cc(-c3cccc(NCC4CCOCC4)n3)c(Cl)cn2)CNCCO1` (stereo not drawn) [Example 145, 2-Methyl-morpholine-2-carboxylic acid {5′-chloro-6-[(tetrahydro-pyran-4-ylmethyl)-amino]-[2,4′]bipyridinyl-2′-yl}-amide], for which the IC50 is 785 nM.

On to `CO[C@H]1CNC[C@@H]1C(=O)Nc1cc(-c2nc(NCC3CCOCC3)ccc2Cl)c(Cl)cn1` [Example 150, (3S,4R)-4-Methoxy-pyrrolidine-3-carboxylic acid {3,5′-dichloro-6-[(tetrahydro-pyran-4-ylmethyl)-amino]-[2,4′]bipyridinyl-2′-yl}-amide], for which the IC50 is less than 8 nM. With `CO[C@H]1CNC[C@@H]1C(=O)Nc1cc(-c2cccc(NCC3CCOC(C)(C)C3)n2)c(Cl)cn1` (stereo partly drawn) [Example 151, (3S,4R)-4-Methoxy-pyrrolidine-3-carboxylic acid {5′-chloro-6-[(2,2-dimethyl-tetrahydro-pyran-4-ylmethyl)-amino]-[2,4′]bipyridinyl-2′-yl}-amide] the figure was less than 8 nM; with `COC(=O)N1CCC[C@H](C(=O)Nc2cc(-c3cccc(NCC4CCS(=O)(=O)CC4)n3)c(Cl)cn2)C1` [Example 152, (S)-3-{5′-Chloro-6-[(1′,1′-dioxo-hexahydro-1-thiopyran-4-ylmethyl)-amino]-[2,4′]bipyridinyl-2′-ylcarbamoyl}-piperidine-1-carboxylic acid methyl ester], less than 8 nM; with `COC(=O)N1CCC[C@H](C(=O)Nc2cc(-c3nc(N[C@H](C)C4CCOCC4)ccc3Cl)c(Cl)cn2)C1` [Example 153, (S)-3-{3,5′-Dichloro-6-[(R)-1-(tetrahydro-pyran-4-yl)-ethylamino]-[2,4′]bipyridinyl-2′-ylcarbamoyl}-piperidine-1-carboxylic acid methyl ester], 26 nM. With `COC(=O)N1CCC[C@H](C(=O)Nc2cc(-c3nc(N[C@@H](C)C4CCOCC4)ccc3Cl)c(Cl)cn2)C1` [Example 154, (S)-3-{3,5′-Dichloro-6-[(S)-1-(tetrahydro-pyran-4-yl)-ethylamino]-[2,4′]bipyridinyl-2′-ylcarbamoyl}-piperidine-1-carboxylic acid methyl ester] the figure was 15 nM.
